Experimental data from patent publication US20090312316A1, “NOVEL COMPOUNDS” (priority 2006, published 2009).

Legend:
endothelial cells = settings: with respect to borrelidin; WO 01/09113; cited from earlier work
[1] = test system: panel of 12 human tumour cell lines; experiment: monolayer proliferation assay (modified propidium iodide assay) in a panel of 12 human tumour cell lines; type: cell-based; settings: for Mean % T/C at 1 μM / Mean % T/C at 10 μM: mean growth across 12 cell-line panel, treated/control x 100, 4 days exposure
Protocol: In vitro evaluation of compounds for anticancer activity in a panel of 12 human tumour cell lines in a monolayer proliferation assay was carried out at the Oncotest Testing Facility, Institute for Experimental Oncology, Oncotest GmbH, Freiburg.
The Oncotest cell lines were established from human tumor xenografts as described by Roth et al., (1999). The origin of the donor xenografts was described by Fiebig et al., (1999). Other cell lines were either obtained from the NCI (H460, SF-268, OVCAR-3, DU145, MDA-MB-231, MDA-MB-468) or purchased from DSMZ, Braunschweig, Germany (LNCAP).
All cell lines, unless otherwise specified, were grown at 37° C. in a humidified atmosphere (95% air, 5% CO2) in a ‘ready-mix’ medium containing RPMI 1640 medium, 10% fetal calf serum, and 0.1 mg/mL gentamicin (PAA, Cölbe, Germany).
A modified propidium iodide assay was used to assess the effects of the test compound(s) on the growth of human tumour cell lines (Dengler et al., (1995)).
Briefly, cells were harvested from exponential phase cultures by trypsinization, counted and plated in 96 well flat-bottomed microtitre plates at a cell density dependent on the cell line (5-10.000 viable cells/well). After 24 h recovery to allow the cells to resume exponential growth, 0.010 mL of culture medium (6 control wells per plate) or culture medium containing macbecin were added to the wells. Each concentration was plated in triplicate. Compounds were applied in two concentrations (0.001 mM and 0.01 mM). Following 4 days of continuous exposure, cell culture medium with or without test compound was replaced by 0.2 mL of an aqueous propidium iodide (PI) solution (7 mg/L). To measure the proportion of living cells, cells were permeabilized by freezing the plates. After thawing the plates, fluorescence was measured using the Cytofluor 4000 microplate reader (excitation 530 nm, emission 620 nm), giving a direct relationship to the total number of viable cells.
The mean growth inhibition across the 12 cell-line panel was expressed as treated/control×100 (% T/C).
In vitro evaluation of the test compounds for anticancer activity in a panel of human tumour cell lines in a monolayer proliferation assay was carried out as described in the general methods using a modified propidium iodide assay. This screen may be used as a model for the toxic effect of compounds in inhibiting general cell growth.

CAM vasculature = experiment: Chick chorioallantoic membrane (CAM) assay of anti-angiogenic activity; type: in vivo
Protocol: Fresh fertile eggs were be incubated for 3 days in a standard egg incubator at 37° C. for 3 days. On Day 3, eggs were cracked under sterile conditions and embryos were placed into 20×100 mm plastic plates and cultivated at 37° C. in an embryo incubator with a water reservoir on the bottom shelf. Air was continuously bubbled into the water reservoir using a small pump so that the humidity in the incubator was kept constant. […] Embryos were returned to the incubator after addition of test material. Control embryos received 10 μL of vehicle alone. […] The blood vessel density was semi-quantitatively measured using an angiogenesis scoring system, in that exponential numbers 1 to 32 were used to indicate number of blood vessels present at the treatment sites on the CAM. Number 32 represented the highest density and 0 represented no angiogenesis. The percent of inhibition at each dosing site was calculated using the score recorded for that site divided by the mean score obtained from the appropriate control samples for each individual experiment. The percent of inhibition for each dose of a given compound was calculated by pooling all results obtained for that dose.

Row | Molecule | selectivity index for capillary formation inhibitory activity versus cell proliferation (endothelial cells) [fold] | inhibition of cell growth at 1 μM (in words) [1] | Mean % T/C at 1 μM [1] [% T/C] | Mean % T/C at 10 μM [1] [% T/C] | also measured
1 | C[C@@H]1C[C@H](C)C[C@H](C)[C@@H](O)CC(=O)O[C@H]([C@@H]2CCC[C@H]2C(=O)NCCN2CCOCC2)C/C=C/C=C(/C#N)[C@H](O)[C@@H](C)C1 [borrelidin-morpholinoethyl amide] | 6 |  |  |  | 
2 | CC1CC(C)CC(C)C(O)C(C#N)=CC=CCC(C2CCC2C(N)=O)OC(=O)CC(O)C(C)C1 (stereo not drawn) [Compound 14, 17-des(cyclopentane-2-carboxylic acid)-17-(cyclobutane-2-carboxylic acid)borrelidin amide] |  | little or no inhibition of cell growth | 92 | 26 | 
3 | CC1CC(C)CC(C)C(O)C(C#N)=CC=CCC(C2CCC2C(=O)NCc2cccnc2)OC(=O)CC(O)C(C)C1 (stereo not drawn) [Compound 11, 17-des(cyclopentane-2-carboxylic acid)-17-(cyclobutane-2-carboxylic acid)borrelidin (3-aminomethyl)pyridine amide] |  | little or no inhibition of cell growth | 97 | 20 | 
4 | C[C@@H]1C[C@H](C)C[C@H](C)[C@@H](O)CC(=O)O[C@@H](C2CC[C@H]2C(=O)O)C/C=C/C=C(/C#N)[C@H](O)[C@@H](C)C1 (stereo partly drawn) [Compound 6, 17-des(cyclopentane-2-carboxylic acid)-17-(cyclobutane-2-carboxylic acid)borrelidin] |  |  | 33 | 8 | inhibition at 1 µM ([1]; Homo sapiens, read-out: Mean percentage Inhibition of cancer cell lines at 1 uM): 67%; Mean percentage inhibition of CAM vasculature at 25 ng/CAM (CAM vasculature; 25 ng/CAM): 51%; Ratio of inhibition of CAM vasculature at 25 ng/CAM to in vitro cancer cell inhibition at 1 uM (CAM vasculature; 25 ng/CAM versus 1 uM in cancer cell panel): 0.76; Mean blood vessel density score (CAM vasculature; angiogenesis score up to 32 (highest density), 0 = no angiogenesis, mean of ten experiments): 8.2
5 | borrelidin-amide | 37 |  |  |  | 
6 | CC1CC(C)CC(C)C(O)C(C#N)=CC=CCC(C2CCC2C(=O)NCc2ccncc2)OC(=O)CC(O)C(C)C1 (stereo not drawn) [Compound 10, 17-des(cyclopentane-2-carboxylic acid)-17-(cyclobutane-2-carboxylic acid)borrelidin (4-aminomethyl)pyridine amide] |  | little or no inhibition of cell growth | 104 | 57 | 
7 | CC1CC(C)CC(C)C(O)C(C#N)=CC=CCC(C2CCC2C(=O)NCc2ccccn2)OC(=O)CC(O)C(C)C1 (stereo not drawn) [Compound 12, 17-des(cyclopentane-2-carboxylic acid)-17-(cyclobutane-2-carboxylic acid)borrelidin (2-aminomethyl)pyridine amide] |  | little or no inhibition of cell growth | 87 | 15 | 
8 | 17-des(cyclopentane-2-carboxylic acid)-17-(cyclobutane-2-carboxylic acid)borrelidin (2-(2-hydroxyethyl)pyridine ester [Compound 8] |  |  | 40 | 6 | 
9 | CC1CC(C)CC(C)C(O)C(C#N)=CC=CCC(C2CCCC2C(=O)OCCc2ccccn2)OC(=O)CC(O)C(C)C1 (stereo not drawn) [borrelidin-(2-pyridyl)-ethyl ester] | 7.5 |  |  |  | 
10 | C[C@@H]1C[C@H](C)C[C@H](C)[C@@H](O)CC(=O)O[C@H]([C@@H]2CCC[C@H]2C(=O)OCCN2CCOCC2)C/C=C/C=C(/C#N)[C@H](O)[C@@H](C)C1 [borrelidin-morpholinoethyl ester] | 60 |  |  |  | 
